Reference: PMC10600239, “Selective MCL-1 inhibitor ABBV-467 is efficacious in tumor models but is associated with cardiac troponin increases in patients” (Communications Medicine, 2023)
“And” between values parts separate entries of the source, which are not always exact repeats. Identical values can stand only once. Like-named read-outs stand apart in the source and are kept apart here.

Assay: Phase 1 first-in-human study (NCT04178902): pharmacokinetics
Assay type: in vivo
Excerpt: Other eligibility criteria included: Eastern Cooperative Oncology Group performance status ≤2, measurable disease as defined by International Myeloma Working Group (IMWG) consensus criteria, an echocardiogram with an ejection fraction ≥50%, and adequate hematologic, hepatic, and renal function. […] Safety evaluations included, but were not limited to, adverse event (AE) monitoring, physical examinations, vital sign measurements, electrocardiogram (ECG), cardiac enzyme monitoring, and clinical laboratory testing (hematology and chemistry) as a measure of safety and tolerability for the entire study duration. Parameters used to determine PK included maximum observed plasma concentration (Cmax), terminal elimination half-life (t1/2), area under the plasma concentration-time curve (AUC) from time 0 to time of last measurable concentration (AUCt), AUC from time 0 to infinity (AUC0-∞), and clearance using non-compartmental methods. […] Preliminary efficacy endpoints were overall response rate (ORR), clinical benefit rate (CBR), and duration of response (DOR) as evaluated per adapted IMWG[36] criteria for MM and per adapted International Working Group (IWG)[37] and European Leukemia Net (ELN)[38] criteria for AML. […]

[1] = Cycle 1 day 1, dose level 0.32 mg/kg (only half of this dose given), N=2, individual values
[2] = Cycle 1 day 15, 0.32 mg/kg, N=2, individual values
[3] = Cycle 1 day 15, 0.53 mg/kg, N=2, individual values

## Cc1c(Cl)c2c(Cl)c(C)c1-c1c(-c3ccc(F)cc3)sc3ncnc(c13)O[C@@H](C(=O)O)Cc1cc(ccc1OCc1ccnc(-c3ccc(OC[C@H]4COCCO4)cc3)n1)OC[C@@H](CN1CCN(C)CC1)O2 [ABBV-467]
Cycle 1 Day 1, DOSE_MGKG 0.08, cohort 1, PKTIME 0.333333
  CONC_NGML: 157 ng/mL and 146 ng/mL
Cycle 1 Day 1, DOSE_MGKG 0.08, cohort 1, PKTIME 0.5
  CONC_NGML: 198 ng/mL and 162 ng/mL
Cycle 1 Day 1, DOSE_MGKG 0.16, cohort 2, PKTIME 0.5
  CONC_NGML: 344 ng/mL
Cycle 1 Day 1, DOSE_MGKG 0.16, cohort 2, PKTIME 1
  CONC_NGML: 21.9 ng/mL
Cycle 1 Day 1, DOSE_MGKG 0.16, cohort 2, PKTIME 1.5
  CONC_NGML: 17 ng/mL
Cycle 1 Day 1, DOSE_MGKG 0.16, cohort 2, PKTIME 2.5
  CONC_NGML: 6.62 ng/mL
Cycle 1 Day 1, DOSE_MGKG 0.265, cohort 3, PKTIME 0.333333
  CONC_NGML: 655 ng/mL and 470 ng/mL
Cycle 1 Day 1, DOSE_MGKG 0.265, cohort 3, PKTIME 0.5
  CONC_NGML: 708 ng/mL and 613 ng/mL
Cycle 1 Day 1, DOSE_MGKG 0.265, cohort 3, PKTIME 1.5
  CONC_NGML: 26.5 ng/mL and 26.6 ng/mL
Cycle 1 Day 1, DOSE_MGKG 0.265, cohort 3, PKTIME 2.5
  CONC_NGML: 6.81 ng/mL and 11.1 ng/mL
Cycle 1 Day 15, DOSE_MGKG 0.16, cohort 1, PKTIME 0.333333
  CONC_NGML: 297 ng/mL and 479 ng/mL
Cycle 1 Day 15, DOSE_MGKG 0.16, cohort 1, PKTIME 1
  CONC_NGML: 46.8 ng/mL and 44.6 ng/mL
Cycle 1 Day 15, DOSE_MGKG 0.16, cohort 1, PKTIME 1.5
  CONC_NGML: 14.6 ng/mL and 10.1 ng/mL
Cycle 1 Day 15, DOSE_MGKG 0.32, cohort 2, PKTIME 0.333333
  CONC_NGML: 529 ng/mL
Cycle 1 Day 15, DOSE_MGKG 0.53, cohort 3, PKTIME 0.166667
  CONC_NGML: 940 ng/mL
Cycle 1 Day 15, DOSE_MGKG 0.53, cohort 3, PKTIME 0.333333
  CONC_NGML: 1430 ng/mL
Cycle 1 Day 15, DOSE_MGKG 0.53, cohort 3, PKTIME 0.5
  CONC_NGML: 1510 ng/mL
Cycle 1 Day 15, DOSE_MGKG 0.53, cohort 3, PKTIME 1.5
  CONC_NGML: 60.6 ng/mL
Cycle 1 Day 15, DOSE_MGKG 0.53, cohort 3, PKTIME 2.5
  CONC_NGML: 26.3 ng/mL
Cycle 1 Day 15, DOSE_MGKG 0.53, cohort 3, PKTIME 4.5
  CONC_NGML: 8.14 ng/mL
[1]
  AUCinf: 309 ng·h/mL
  AUCt: 306 ng·h/mL
  CL: 8.62 mL/min/kg
  Cmax: 344 ng/mL
  t1/2: 34.4 min
[2]
  AUCinf: 940 ng·h/mL and 350 ng·h/mL
  AUCt: 346 ng·h/mL and 933 ng·h/mL
  CL: 5.67 mL/min/kg and 15.2 mL/min/kg
  Cmax: 1720 ng/mL and 646 ng/mL
  Tmax: 45.0 min
  t1/2: 23.0 min and 54.3 min
[3]
  AUCinf: 1290 ng·h/mL
  AUCt: 1280 ng·h/mL
  CL: 6.83 mL/min/kg
  Cmax: 1860 ng/mL
  t1/2: 64.1 min
Human patients at the doses studied
  pharmacokinetics: linear pharmacokinetics
human, in vivo, 0.08 mg/kg, Cycle 1 Day 1, DOSE_MGKG 0.08, cohort 1, PKTIME 0, read-out: CONC_NGML
  concentration at 0 h: 0 ng/mL
human, in vivo, 0.08 mg/kg, Cycle 1 Day 1, DOSE_MGKG 0.08, cohort 1, PKTIME 0.333333, read-out: CONC_NGML
  concentration at 20 min: 132 ng/mL
human, in vivo, 0.08 mg/kg, Cycle 1 Day 1, DOSE_MGKG 0.08, cohort 1, PKTIME 0.5, read-out: CONC_NGML
  concentration at 0.5 h: 252 ng/mL
human, in vivo, 0.08 mg/kg, Cycle 1 Day 1, DOSE_MGKG 0.08, cohort 1, PKTIME 4.5, read-out: CONC_NGML
  concentration at 4.5 h: 0 ng/mL
human, in vivo, 0.08 mg/kg, Cycle 1 Day 1, DOSE_MGKG 0.08, cohort 1, PKTIME 8.5, read-out: CONC_NGML
  concentration at […]: 0 ng/mL
human, in vivo, 0.08 mg/kg, Cycle 1 Day 1, DOSE_MGKG 0.08, cohort 1, PKTIME 24.5, read-out: CONC_NGML
  concentration at […]: 0 ng/mL
human, in vivo, 0.265 mg/kg, Cycle 1 Day 1, DOSE_MGKG 0.265, cohort 3, PKTIME 0, read-out: CONC_NGML
  concentration at 0 h: 0 ng/mL
human, in vivo, 0.265 mg/kg, Cycle 1 Day 1, DOSE_MGKG 0.265, cohort 3, PKTIME 0.333333, read-out: CONC_NGML
  concentration at 20 min: 904 ng/mL
human, in vivo, 0.265 mg/kg, Cycle 1 Day 1, DOSE_MGKG 0.265, cohort 3, PKTIME 0.5, read-out: CONC_NGML
  concentration at 0.5 h: 564 ng/mL
human, in vivo, 0.265 mg/kg, Cycle 1 Day 1, DOSE_MGKG 0.265, cohort 3, PKTIME 1.5, read-out: CONC_NGML
  concentration at 1.5 h: 14.9 ng/mL
